Data on 89 compounds can be found in a melting point compilation (Tetko et al.; mined from patent text by program, amines drawn as free bases though some values may be those of a salt).

Molecules are shown by their SMILES.

Consider `CC(C)(C)OC(=O)[C@@H]1CS[C@H](c2c(F)cccc2Cl)N1C(=O)CNC(=O)Nc1cccc(C(=O)O)c1`, for which the melting point (in general, the temperature, or range, at which the solid turns liquid) was 148 °C.

In turn, `O=C(c1ccc(F)cc1)N1Cc2c(-c3ccc(F)cc3)ncn2-c2ccccc21` gave a melting point of 230 to 231 °C.

Compound `Cc1ccc(C(=O)n2c3c(c4cc(F)ccc42)CC(C(=O)O)CC3)cc1` (centres undefined) registered a melting point of 229 to 231 °C.

Compound `Cc1c(C)c(N2CCN(c3ccccc3)CC2)c(C)c2c1OC(C)(C)C2O` (centres undefined) gave a melting point of 142 to 144 °C.

For the compound `CCCC1(CCC)c2cc(-c3nc4cc(C)ccc4o3)ccc2-c2cc(OC)c(-c3nc4cc(C)ccc4o3)cc21`, the melting point lay within 240 to 248 °C.

`CN1Cc2c(-c3noc(CCl)n3)ncn2-c2cccc(C(F)(F)F)c2C1=O` returned a melting point of 180 to 184 °C.

The compound `CNC(=O)c1cc(Cl)cc(C)c1N` showed a melting point of 141 to 143 °C.

The compound `O=C(O)CC1=C(c2ccccc2)c2ccccc2OC1` had a melting point of 147 to 149 °C.

Consider `COC(=O)c1ccc2c(c1)COc1ccc(/C=C/c3ccc4c(n3)CCCC4)cc1C2SCCC(=O)O` (centres undefined), for which the melting point fell in the range of 121 to 123 °C.

Regarding `Cc1cc(-c2ccc(C(F)(F)F)cc2)cn2c(C(=O)O)cnc12`, the melting point worked out at 211 °C.

`Cc1nc(CS(=O)(=O)c2cccc(Cl)c2Cl)no1`: the melting point was 105 to 107 °C.

In turn, `C[C@H](NC(=O)COc1ccc2c(-c3ccccc3)nn(C)c2n1)c1ccccc1` had a melting point of 55 to 56 °C.

As for `O=S1(=O)NCC(O)c2ccsc21` (centres undefined), the melting point lay in the range of 138 to 140 °C.

Take `O=C(NCC1CCN(CC2(C(=O)O)CCC2)CC1)N1C(=O)C2(CCCC2)c2ccc(F)cc21`: the melting point was determined as 150 °C.

`C=CCc1cc(-c2ccc(F)cc2)cc(C(=O)OC)c1O`: the melting point lay in the range of 76 to 77 °C.

`COc1ccc(CSC2=NC(c3cccc([N+](=O)[O-])c3)C(C(=O)O)=C(C)N2)cc1` (centres undefined) returned a melting point of 90 °C.

Turning to `N#Cc1cc(N)cc([N+](=O)[O-])c1`, the melting point was 168 to 170 °C.

`CCCCCCNC(=O)[C@@H](NC(=O)[C@H](CC(C)C)NC(=O)OC(C)(C)C)C(C)C` showed a melting point of 115 to 116 °C.

In turn, `O=C(Nc1ccc(-n2nc(C(F)(F)F)cc2C2CC2)c(F)c1)c1cccc(F)c1F` displayed a melting point of 132 to 135 °C.

For the compound `Cc1sc(C)c(NC(=S)Nc2c(Cl)cccc2Cl)c1N`, the melting point was in the range of 143 to 148 °C.

For `CC(C)(C)OC(=O)CN1CCN(c2ccnc(-c3nc(=O)c4ccccc4s3)c2)C1=O`, the melting point was 192 to 194 °C.

For `O=S(=O)(Nc1ccc(Cl)cc1C=NOCc1ccc(C(F)(F)F)cc1C(F)(F)F)C(F)(F)F`, the melting point is 65 to 67 °C.

On to `COC(=O)CN1C(=O)C(C(C)C)Sc2ccccc21` (centres undefined), for which the melting point fell in the range of 81 to 82 °C.

`O=C1Nc2ccncc2Oc2ccccc21` had a melting point of 253 to 254 °C.

The compound `O=C(NCCN1CCC2(CC1)C(=O)NCN2c1ccccc1)c1ccc(Cl)cc1` gave a melting point of 201 °C.

In the case of `O=C(Nc1ccc(CP(=O)(O)O)cc1)c1cc(=O)c2ccccc2o1`, the melting point is 265 to 266 °C.

Compound `CCNC(=O)OCCOc1ccc(Oc2ccc(F)cc2)cc1Cl` showed a melting point of 42 to 43 °C.

For `CC(=O)c1cc(F)c(O)c(F)c1`, the melting point lay within 141 to 143 °C.

On to `CCOC(=O)c1c(CN2CCCCC2)nc2cc(OCC)c(OCC)cc2c1-c1ccc(OC)c(OC)c1`, for which the melting point fell in the range of 154 to 155 °C.

`CCOC(=O)C(CC(=O)c1ccc(OC)cc1)C(=O)OCC` showed a melting point of 81 to 84 °C.

In turn, `CCCCCCCCOc1ncc(-c2ccc(OC(=O)[C@H]3CCCO3)cc2)cn1` gave a melting point of 75 °C.

The compound `COc1ncnc(-c2cc([N+](=O)[O-])c(F)cc2F)c1C` had a melting point of 114 to 117 °C.

Turning to `COc1cccc2c(O)c(C(=O)NCC(=O)O)ncc12`, the melting point amounted to 168 °C.

The compound `Cc1ccc2c(c1)CCn1ccnc1C2=C1CCN(CCc2ccc(O)cc2)CC1` showed a melting point of 176 °C.

In turn, `O=C(NCc1ccn(-c2cc3[nH]c(=O)c(=O)[nH]c3cc2[N+](=O)[O-])c1)NC1CCN(Cc2ccccc2)CC1` came in with a melting point of 234 to 237 °C.

Regarding `CCOC(=O)C[C@H]1O[C@H](c2cccc(OC)c2OC)c2cc(Cl)ccc2N(CC(C)(C)CO)C1=O`, the melting point fell in the range of 188 to 190 °C.

In turn, `Cc1cc(OCc2ccc(-c3ccc(C(F)(F)F)cc3)nn2)ccc1OC(C)(C)C(=O)O` gave a melting point of 191 to 192 °C.

In turn, `CN(C)c1cccc(CSC2NC(=S)NC2(C)C)c1` (centres undefined) returned a melting point of 178 to 179 °C.

The compound `Cc1ccc(-c2c(C)ccn2-c2ccc(S(C)(=O)=O)cc2)cc1` registered a melting point of 158 to 160 °C.

For the compound `CN(C)c1ccc2nc(N)c(C#N)c(NCc3ccccc3)c2c1`, the melting point was 265 °C.

With `COc1cccc(CNC(=O)c2nc3scc(COCc4ccc(CO)cc4)c3c(=O)[nH]2)c1`, the melting point fell in the range of 156 to 157 °C.

Compound `CN1C(=O)C(c2ccc(OC(F)F)cc2)(C2CCCCC2)N=C1N` (centres undefined) displayed a melting point of 178 to 180 °C.

In the case of `Nc1nc2c(s1)CCN(CC=Cc1ccc3ccccc3c1)CC2`, the melting point is 164 to 165 °C.

Regarding `Oc1c(I)cccc1-c1c(Cl)cccc1Cl`, the melting point was 51 to 53 °C.

For `Cc1ccc(-n2cccc2)c(N)c1`, the melting point was in the range of 89 to 90 °C.

`Cc1ccsc1C(Cc1cc(Br)ccc1N)N(C)C` (centres undefined): the melting point was in the range of 96 to 98 °C.

For the compound `CN(C)c1cc2c(cc1C(F)(F)F)NC(=O)CC(c1ccnc(C#N)c1)=N2`, the melting point came out at 248 °C.

As for `Cc1cn2nc(S(=O)(=O)Cl)nc2nc1C`, the melting point lay in the range of 116 to 120 °C.

As for `CCCCCCCCCCCCCCCCCC(=O)ON1C(C)(C)CC(OC(=O)c2ccccc2)CC1(C)C`, the melting point lay within 85 to 89 °C.

Regarding `CCc1cc(NCc2ccc(-c3ccccc3C#N)cc2)n2nccc2n1`, the melting point lay within 230 to 233 °C.

As to `O=C(O)C(=O)c1ccc(OCCOc2ccc3ccncc3c2)cc1`, the melting point stood at 260 °C.

`C/C=C/OC(=O)/C=C/N(C)C` gave a melting point of 48 to 48.5 °C.

With `c1ccc2c(c1)-c1nccc3ccnc-2c13`, the melting point is 152 to 153 °C.

In turn, `CC(C)c1noc(-c2c(Cl)ccc(C(=O)O)c2Cl)n1` registered a melting point of 104 to 107 °C.

As for `O=C(NCc1cccnc1)c1ccc2n1Cc1ccccc1N(C(=O)c1ccc3c(c1)Cc1ccccc1-3)C2`, the melting point lay within 116 to 119 °C.

`COc1ccc(C(OC2CCN(CC(=O)O)CC2)c2ccccc2)cc1` (centres undefined) registered a melting point of 84 to 85 °C.

For `CCCc1nc(-n2cccc2)c(CO)[nH]1`, the melting point is 155 to 158 °C.

In turn, `Nc1cc(Br)c([N+](=O)[O-])cc1Br` yielded a melting point of 178 °C.

For `COCCNC(=O)c1ccc(C(=O)NS(=O)(=O)c2ccc(CCNC(=O)CCC(C)C)cc2)cn1`, the melting point was in the range of 154 to 157 °C.

With `C(=C\c1c[nH]c2ccccc12)/c1cc(/C=C/c2ccccc2OCc2ccccn2)[nH]n1`, the melting point fell in the range of 114 to 125 °C.

For `CNS(=O)(=O)c1cc(OC)c(OC)c(C(=O)NCC2CCCN2C)c1` (centres undefined), the melting point was in the range of 111 to 112 °C.

Compound `CCO[C@@H](Cc1ccc(OCCc2nc(-c3ccc(C(F)(F)F)cc3)oc2C)c2ccccc12)C(=O)O` displayed a melting point of 153 to 155 °C.

`Cc1cc(Oc2ccc(S(=O)(=O)c3ccc(Cl)cc3)cc2)ccc1N`: the melting point was found to be 200 °C.

`CN1CC(C#CC2CC2)(C(F)(F)F)c2cc(Cl)ccc2NC1=O` (centres undefined) registered a melting point of 177 to 178 °C.

The compound `CC(C)Cc1nn(C)c(=O)c2cc(Cc3ccccc3)sc12` returned a melting point of 97 to 98 °C.

Turning to `COc1ccc2c(N3CCCNCC3)noc2c1`, the melting point lay within 74 to 75 °C.

Consider `CCOC(=O)N1CCOC(CNC(=O)c2cc(Cl)c(N)cc2OC)C1` (centres undefined), for which the melting point lay within 140 to 151 °C.

Compound `O=C1CCC(N2Cc3c(OCc4ccccc4CN4CCOCC4)cccc3C2=O)C(=O)N1` (centres undefined) came in with a melting point of 188 to 190 °C.

As to `CCOC(=O)C1=C(C)NC(N=CN(C)C)=C(C(=O)OCC)C1c1ccccc1Cl` (centres undefined), the melting point was 140 °C.

Compound `OCCN1CCC(=C2c3ccccc3CCn3ncnc32)CC1` yielded a melting point of 154 °C.

The compound `FC(F)(F)c1ccc(Nc2nccc(-c3cccc(Cl)c3)n2)cc1` showed a melting point of 202 °C.

On to `CC(=O)Nc1n[nH]c(C(C)(C)C)c1Br`, for which the melting point lay within 234 to 235 °C.

Turning to `Cn1c(C(F)(F)F)cc(=O)n(Cc2cc(I)cc(Cl)c2Cl)c1=O`, the melting point was in the range of 142 to 144 °C.

Compound `CCOC(=O)c1cc(-c2cc(Br)cc(Br)c2)cnc1C` showed a melting point of 100 to 102 °C.

Regarding `CCCn1cnc2c1c(=O)n(CCCCCC(C)=O)c(=O)n2C`, the melting point lay within 69 to 70 °C.

For `Cc1ccc(-n2c(=O)cc(C(F)(F)F)[nH]c2=S)cc1OC(C)C`, the melting point is 227 to 228 °C.

Regarding `CCOC(=O)C1=C(C)NC(=S)N(S(=O)(=O)c2ccccc2)C1c1cccc([N+](=O)[O-])c1` (centres undefined), the melting point fell in the range of 162 to 164 °C.

The compound `CCONC(=O)c1cccc(-c2nc3ccccc3c(=O)o2)c1` showed a melting point of 179 to 183 °C.

Consider `COc1ccc(-c2cccc3c2COC3=O)c2c1OCCO2`, for which the melting point was 158 to 160 °C.

`O=C(CCc1cc(-c2ccccc2)nc2ccccc12)N1CCCC1` showed a melting point of 116 °C.

`O=C(C=Cc1ccc(-c2ccc(Cl)cc2)cc1)Nc1ccc(CN2CCCCC2)cc1` yielded a melting point of 265 to 270 °C.

The compound `COC(=O)C(c1ccc(N)cc1)C1CC1` (centres undefined) gave a melting point of 68 to 69 °C.

`CCc1ccc(-c2nc3ccccc3o2)cc1` displayed a melting point of 84 to 86 °C.

`N#CC(=Cc1ccncc1)c1cccnc1` came in with a melting point of 150 to 152 °C.

On to `CCOCc1nc2c(N)nc3cc(-c4cccnc4)ccc3c2n1Cc1ccc(CNS(C)(=O)=O)cc1`, for which the melting point fell in the range of 228 to 229 °C.

`Cc1cc(C)c(C2Cc3cc(NC(=O)CC(C)(C)C)cc(Cc4ccc(C(C)C)cc4)c3O2)cc1CO` (centres undefined) came in with a melting point of 136 to 137 °C.

`COc1cn(-c2ccc(N3CCOCC3=O)cc2F)nc(-c2ccnn2-c2ccccc2)c1=O`: the melting point lay in the range of 193 to 195 °C.

Compound `CCCCSCC(=O)c1cc2[nH]c(=O)[nH]c2cc1Cl` returned a melting point of 199 to 201 °C.

In the case of `COC(=O)c1ccc(-c2nc(-c3ccc(C(F)(F)F)cc3)no2)cc1`, the melting point was in the range of 177 to 178 °C.
